Assay results from paper PMC3929320 (Journal of medicinal chemistry, 2010).

Assays:
[1] = target: T1, human kynurenine aminotransferase II (hKAT II) (Homo sapiens, UniProt Q8N5Z0); test: recombinant enzyme assay, L-KYN to KYNA conversion by HPLC; type: biochemical
Target sequence in this assay (Q8N5Z0 whole entry): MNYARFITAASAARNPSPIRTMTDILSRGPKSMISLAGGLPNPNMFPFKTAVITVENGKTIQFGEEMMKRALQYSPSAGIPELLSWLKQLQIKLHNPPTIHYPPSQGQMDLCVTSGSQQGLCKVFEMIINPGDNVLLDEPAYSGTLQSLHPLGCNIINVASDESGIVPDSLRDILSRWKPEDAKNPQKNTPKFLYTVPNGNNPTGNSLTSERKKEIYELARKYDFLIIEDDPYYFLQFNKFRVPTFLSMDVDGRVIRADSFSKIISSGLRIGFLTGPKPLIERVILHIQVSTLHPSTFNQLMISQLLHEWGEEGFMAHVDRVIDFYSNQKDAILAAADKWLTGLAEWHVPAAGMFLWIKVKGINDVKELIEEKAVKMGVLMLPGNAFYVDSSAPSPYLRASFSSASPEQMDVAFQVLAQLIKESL

[2] = target: T1, human kynurenine aminotransferase II (hKAT II); test: X-ray crystal structure at […] Å; type: biochemical
Target sequence in this assay (Q8N5Z0 2-425): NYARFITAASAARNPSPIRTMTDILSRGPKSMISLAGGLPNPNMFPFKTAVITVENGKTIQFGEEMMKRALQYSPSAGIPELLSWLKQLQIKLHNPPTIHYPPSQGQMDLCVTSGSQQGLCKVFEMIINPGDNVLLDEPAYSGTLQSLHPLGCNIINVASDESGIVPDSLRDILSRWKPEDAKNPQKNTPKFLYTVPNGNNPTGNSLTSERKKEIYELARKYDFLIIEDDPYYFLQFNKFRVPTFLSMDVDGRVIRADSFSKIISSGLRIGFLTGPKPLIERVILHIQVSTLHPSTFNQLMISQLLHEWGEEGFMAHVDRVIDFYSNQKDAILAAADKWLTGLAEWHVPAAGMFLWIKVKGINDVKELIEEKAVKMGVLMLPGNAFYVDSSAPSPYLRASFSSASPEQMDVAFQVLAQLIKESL

IC50 [1]	IC50 [2]	Structure (SMILES)
0.91 and 1.5 (two enantiomers) μM	–	C[C@@H]1COc2c(N3CCN(N)CC3)c(F)cc3c(=O)c(C(=O)O)cn1c23 [1*, 1* (stereoisomer of BFF-122)]
–	0.91 and 1.5 (two enantiomers) μM	C[C@H]1COc2c(N3CCN(N)CC3)c(F)cc3c(=O)c(C(=O)O)cn1c23 [compound 1, (S)-(−)-9-(4-aminopiperazin-1-yl)-8-fluoro-3-methyl-6-oxo-2,3-dihydro-6H-1-oxa-3a-azaphenalene-5-carboxylic acid]
